{"source": "patent EP1707213A1", "about": "“Herbal composition for the treatment of cutaneous Erythema” (Kern, Elisabeth, priority 2005, dated 2006)", "origin": "cited, not measured here", "key": {"[1]": {"tested_on": "durch Doxil induziertes Hand-Fuß-Syndrom", "conditions": "patients with hand-foot syndrome of Grade 2 bis 4 under Doxil"}}, "note": "Like-named read-outs stand apart in the source and are kept apart here.", "data": [{"smiles": "CCCCCOC(=O)Nc1nc(=O)n([C@@H]2O[C@H](C)[C@@H](O)[C@H]2O)cc1F", "note": "[Capecitabin, N4-Pentyloxycarbonyl-5'desoxy-Fluorocytidin]", "values": [{"measurement": "palmoplantare Erythrodysästhesie als häufigste Nebenwirkung", "setting": "Patienten; in vivo", "value": 50, "unit": "% der Patienten"}]}, {"smiles": "O=c1[nH]cc(F)c(=O)[nH]1", "note": "[Zusammensetzung 5-FU, 5-Fluorouracil]", "values": [{"measurement": "palmoplantare Erythrodysästhesie als häufigste Nebenwirkung", "setting": "Patienten; use as cytostatic", "value": 50, "unit": "% der Patienten"}]}, {"smiles": "C[C@@H]1C[C@H]2[C@@H]3CCC4=CC(=O)C=C[C@]4(C)[C@@]3(F)[C@@H](O)C[C@]2(C)[C@@]1(O)C(=O)CO", "note": "[Dexamethason]", "values": [{"measurement": "Fortführung der Chemotherapie mit der ursprünglichen Dosierung von Doxil", "setting": "[1]", "value": "möglich"}]}]}
